Reference: patent US20050202463A1, “Modulators of dimethylarginine dimethylaminohydrolase and methods of use thereof” (priority 2003, published 2005)

Experiments:
mice = experiment: plasma glucose clearance after i.p. insulin (insulin sensitivity); type: in vivo; settings: wild-type female mice, ADMA 75 mg/kg i.p. after 4 h fasting, insulin injected 2 h later, compared to PBS-treated wild-type mice
Description: Experiments were performed to assess insulin sensitivity by measuring plasma glucose clearance rate in these DDAH transgenic mice. After 4 hours of fasting, wildtype female mice were injected intraperitoneally with either ADMA (75 mg/kg), which induces insulin resistance, or phosphate buffered saline (PBS); the same dosage was given to the transgenic mice (n=3 in each group). After two hours, insulin was injected; venous blood glucose was assayed by a glucometer every 5 minutes for an hour. The half-life of glucose disappearance from plasma was calculated using a first-order decay model; plasma ADMA was measured by HPLC.

ADMA levels = settings: reported in the literature (Stuhlinger et al. 2002; Wheatcroft et al. 2003); cited from earlier work

| Compound | plasma glucose response to insulin (mice) | effect on ADMA levels (ADMA levels) |
| --- | --- | --- |
| CN(C)C(N)=NCCC[C@H](N)C(=O)O [ADMA, asymmetric dimethylarginine] | delayed and attenuated drop in plasma glucose in response to insulin | – |
| CN(C)C(=N)N=C(N)N [metformin] | – | decrease circulating ADMA levels |
